Test results from patent US9517993B2, “Antagonists of the toll-like receptor 1/2 complex” (THE REGENTS OF THE UNIVERSITY OF COLORADO, a body corporate, priority 2012, dated 2016).

What was measured:
[1] = molecular target: TLR1/2 (Homo sapiens, UniProt O60603+Q15399); assay: Fluorescence anisotropy competition assay with rhodamine-labeled Pam3CSK4; assay type: binding; parameters: His; TLR2 made in house; host or cells: baculovirus; Sf-9 for virus, High Five insect cells for expression (TLR2)
Description: The TLR2 protein was expressed in the baculovirus insect cell expression system using the methods described by Kuroki et al. See Iwaki et al., The extracellular Toll-like receptor 2 domain directly binds peptidoglycan derived from Staphylococcus aureus, J. Biol Chem (2002), 277:24315-20, which is herein incorporated by reference in its entirety. The activity of the TLR2 protein was validated by the fluorescence anisotropy assay. […] Good fitting (R2>0.98) inferred that compound 17 and Pam3CSK4 compete for the same binding site on the TLR1/2 dimeric surface.
In 500 μL Tris buffer (pH=7.2) add 10 μL, (1 ng/mL) rhodamine-labeled Pam3CSK4, test the fluorescence anisotropy at excitation of 549 nm and emission of 566 nm (Horiba Fluorolog 3). And 5 μL (20 μM) TLR1 (R &D) and 5 μL, (20 μM) TLR2 was added into the above buffer, then retest the anisotropy. Following, compound 17 or compound 6 was added in the buffer from the concentration of 0 to 6 μM, and the fluorescence anisotropy was tested in the corresponding concentration.
Fluorescence polarization experiments were performed at 25° C. using a Horiba Fluorolog-3 fluorometer. For direct binding measurements, serial dilutions of TLR1 (R&D, MN) and TLR2 were made in Tris buffer (pH=7.2), and an aliquot (10 μL) of 1 ng/mL rhodamine labeled Pam3CSK4, was added to a total volume of 500 μL. The competition binding solution was incubated for 30 minutes at 25° C. Serial dilutions of compound 17 or compound 6 were incubated with 20 μM TLR1, 20 μM TLR2 and rhodamine-labeled Pam3CSK4 for 30 min at room temperature.
Regression analysis was carried out using Origin 7.5 (OriginLab) ligand binding macro module. […] Equation (1): y=min+(max−min)/(1+10^x-logIC50)(total binding, x=log concentration of and rhodamine-labeled Pam3CSK4, min=nonspecific binding, max=maximum binding in absence of ligand). Equation (2): Ki=IC50/(1+[L]/Kd) ([L]=concentration of rhodamine-labeled Pam3CSK4).

[2] = test system: TNF-α and IL-1β production; assay: Cytokine-specific ELISA in Pam3CSK4-activated RAW 264.7 cells; assay type: cell-based, mouse
Experimental: RAW 264.7 cells were planted in 6-well plates at 1,000,000 cells per well with 3 mL of medium (RPMI 1640 medium, supplemented with 10% FBS, penicillin (100 U/mL) and streptomycin ([…])) and grown for 24 h at 37° C. in a 5% CO2 humidified incubator. After 24 h, non-adherent cells and media were removed and replaced with fresh RPMI 1640 medium (3 mL/well). Two wells of adherent macrophages were treated with Pam3CSK4 (Invivogen, 300 ng/mL) as the positive control, two wells was treated with 8 μM compound 17, and the other two wells ware treated with 8 μM compound DMSO. Another 6 well plate were treated with Pam3CSK4 (Invivogen, 300 ng/mL) and different concentration of 17. Plates were then incubated for an additional 24 h. […] Approximately 400 μL of supernatant were collected into new tubes, frozen at −80° C. until ready for cytokine measurement. The production of the cytokine interleukin-1β (IL-1β) and TNF-α was quantified with enzyme-linked immunosorbent assays (ELISA) using cytokine-specific capture antibodies, biotinylated monoclonal detection antibodies, and recombinant human cytokine standards according to commercially available ELISA kits from R&D Systems. The cytokine level in each sample was determined in duplicate.

[3] = test system: isolated microglial cells; assay: IL-1β inhibition in isolated microglial cells incubated with Pam3CSK4; assay type: cell-based; conditions: Pam3CSK4 and compound for 2 hours, N=4, listed as CU-CPT22
Experimental: In vitro testing was conducted using primary cells (isolated microglial cells) incubated with Pam3CSK4 and CU-CPT22 for 2 hours.

[4] = test system: RAW 264.7 cells; assay: MTT cytotoxicity assay; assay type: cell-based, mouse; conditions: for cytotoxicity: at the active dose, RAW 264.7 cells, MTT
Experimental: MTT Cytotoxicity Assay. In a 96-well plate 10,000 cells in 200 μL media (RPMI 1640 medium, supplemented with 10% FBS, penicillin (100 U/mL) and streptomycin ([…])) per well. Eight wells were left empty for blank controls. The plates were incubated (37° C., 5% CO2) overnight to allow the cells to attach to the wells. Add 20 ul (5 mg/mL) MTT solution to each well. Place on a shaking table, 150 rpm for 5 minutes, to thoroughly mix the MTT into the media. Incubate (37° C., 5% CO2) for 4 hours to allow the MTT to be metabolized. Dump off the media. Dry plate on paper towels to remove residue. Resuspend formazan (MTT metabolic product) in 200 ul DMSO. Place on a shaking table, 150 rpm for 5 minutes, to thoroughly mix the formazan into the solvent. When a clear difference could be seen by naked eye, results were read by spectrophotometer at 560 nm. Optical density should be directly correlated with cell quantity. Cytotoxicity (%) was determined using the following formula: Cytotoxicity (%) (1−[Compounds (OD560)−Background(OD560)]/[Control (OD560)−Background (OD560)])×100.

Sequence of TLR1/2 (Q15399 25-580 limits assumed): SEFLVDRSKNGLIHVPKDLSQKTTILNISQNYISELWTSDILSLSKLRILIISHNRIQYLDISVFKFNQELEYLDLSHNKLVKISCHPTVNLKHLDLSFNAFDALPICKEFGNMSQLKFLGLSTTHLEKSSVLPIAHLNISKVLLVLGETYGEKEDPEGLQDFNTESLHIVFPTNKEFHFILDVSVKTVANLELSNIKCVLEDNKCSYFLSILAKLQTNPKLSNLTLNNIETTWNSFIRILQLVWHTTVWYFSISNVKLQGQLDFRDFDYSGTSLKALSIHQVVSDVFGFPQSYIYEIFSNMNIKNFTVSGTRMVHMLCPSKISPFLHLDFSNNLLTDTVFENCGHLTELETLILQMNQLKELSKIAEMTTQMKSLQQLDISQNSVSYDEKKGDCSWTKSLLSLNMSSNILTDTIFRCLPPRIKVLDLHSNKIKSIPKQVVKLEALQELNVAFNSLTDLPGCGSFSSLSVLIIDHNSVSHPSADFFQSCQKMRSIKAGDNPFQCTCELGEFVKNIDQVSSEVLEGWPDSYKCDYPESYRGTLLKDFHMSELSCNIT
Sequence of TLR1/2 (O60603 21-588 limits assumed): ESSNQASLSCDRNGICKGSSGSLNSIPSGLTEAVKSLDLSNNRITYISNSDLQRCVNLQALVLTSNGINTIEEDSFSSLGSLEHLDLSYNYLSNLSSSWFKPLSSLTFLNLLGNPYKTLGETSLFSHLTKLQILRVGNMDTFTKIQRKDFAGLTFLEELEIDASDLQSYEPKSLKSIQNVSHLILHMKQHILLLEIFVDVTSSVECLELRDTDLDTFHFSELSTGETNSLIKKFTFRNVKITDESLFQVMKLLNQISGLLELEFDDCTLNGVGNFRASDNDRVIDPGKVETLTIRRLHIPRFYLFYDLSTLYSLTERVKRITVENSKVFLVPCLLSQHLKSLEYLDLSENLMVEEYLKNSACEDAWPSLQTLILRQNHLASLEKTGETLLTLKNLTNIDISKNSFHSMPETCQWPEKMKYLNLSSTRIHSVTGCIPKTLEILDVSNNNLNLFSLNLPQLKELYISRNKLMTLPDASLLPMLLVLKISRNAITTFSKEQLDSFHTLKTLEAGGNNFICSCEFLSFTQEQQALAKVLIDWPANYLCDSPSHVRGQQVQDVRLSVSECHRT

competition with Pam3CSK4 for TLR1/2 (in words) ([1]; fluorescence anisotropy): competitive binding
Ki ([1]; rhodamine-labeled Pam3CSK4, one-site competition model, read-out: inhibition constant (Ki), competition with Pam3CSK4 for binding to TLR1/2): 0.41 µM
Structure (SMILES): CCCCCCOC(=O)c1cc(O)c(=O)c2c(O)c(O)c(OC)cc2c1 [compound 17, Hexyl 3,4,6-trihydroxy-2-methoxy-5-oxo-5H-benzo[7]annulene-8-carboxylate]
anisotropy of rhodamine-labeled Pam3CSK4 with TLR1/2 ([1]; compound concentration increased to 6 μM): decreased the anisotropy to background levels
TNF-α inhibition (ELISA) ([2]; RAW 264.7, 300 ng/mL Pam3CSK4): TNF-α inhibition
IL-1β production (ELISA) ([2]; RAW 264.7, activated by 300 ng/mL Pam3CSK4): inhibited
inhibition of IL-1β [3]: Dose-dependent inhibition
cytotoxicity [4]: no significant cytotoxicity
cytotoxicity ([4]; listed as CU-CPT22): low toxicity
toxicity by MTT assay ([4]; under 8 μM): no significant toxicity issues
